Data as given in patent US9957271B2, “Substituted bicyclic aza-heterocycles and analogues as sirtuin modulators” (GlaxoSmithKline, LLC, priority 2012, dated 2018).

How the values were obtained:
SIRT1 [1] = molecular target: T1, SIRT1 (Homo sapiens, UniProt Q96EB6); assay: Trp mass spectrometry assay of SIRT1 activity; assay type: biochemical; settings: for Emax: read-out: Trp % Fold Act
T1 sequence (Q96EB6 1-747): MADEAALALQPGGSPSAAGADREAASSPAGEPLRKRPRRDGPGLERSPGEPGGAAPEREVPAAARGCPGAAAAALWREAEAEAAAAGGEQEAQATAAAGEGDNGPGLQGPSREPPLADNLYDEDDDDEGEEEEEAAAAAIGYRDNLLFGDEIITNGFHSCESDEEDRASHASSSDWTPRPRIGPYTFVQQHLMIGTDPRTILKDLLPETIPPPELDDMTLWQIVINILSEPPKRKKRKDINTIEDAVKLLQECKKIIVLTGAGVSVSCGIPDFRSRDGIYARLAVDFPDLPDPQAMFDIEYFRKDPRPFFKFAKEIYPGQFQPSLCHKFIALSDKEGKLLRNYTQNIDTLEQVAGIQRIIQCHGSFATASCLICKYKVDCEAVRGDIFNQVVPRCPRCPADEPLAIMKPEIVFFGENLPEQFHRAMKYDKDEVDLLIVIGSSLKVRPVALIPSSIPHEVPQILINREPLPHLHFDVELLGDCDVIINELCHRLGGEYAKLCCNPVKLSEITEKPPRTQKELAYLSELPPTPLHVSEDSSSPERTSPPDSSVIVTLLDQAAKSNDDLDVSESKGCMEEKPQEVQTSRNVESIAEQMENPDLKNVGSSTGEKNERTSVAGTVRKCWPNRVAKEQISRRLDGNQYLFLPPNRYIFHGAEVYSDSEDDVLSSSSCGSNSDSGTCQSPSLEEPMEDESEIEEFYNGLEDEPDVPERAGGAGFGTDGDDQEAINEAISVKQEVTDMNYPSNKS
Method in brief: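 Activation readout: EC1.5 (concentration raising activity 50% over control) and percent maximum activation, from mass-spec quantitation of OAADPR or deacetylated Trp peptide. Reaction: 0.5 μM acetylated Trp peptide, 120 μM βNAD+, 10 nM bacterially expressed N-His SIRT1, pH 7.5 HEPES buffer with […], 25 min at 25° C.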

SIRT1 [2] = molecular target: T1, SIRT1; assay: TAMRA based mass spectrometry assay of SIRT1 activity; assay type: biochemical; settings: for Emax: read-out: TAMRA % Fold Act
Method in brief: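 Deacetylation of a biotinylated, TAMRA-tagged p53-based peptide (0.5 μM) by 10 nM His-tagged SIRT1 with 120 μM βNAD+, 25 °C for 25 min, pH 8 Tris-acetate buffer, across a compound concentration range. Quenched by formic acid and read by mass spec as product peptide or OAADPR; activity relative to DMSO reactions, nicotinamide defining maximal inhibition.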

[3] = Trp assay, concentration giving 150% activation of SIRT1
[4] = Trp assay, percent maximum fold activation
[5] = TAMRA assay, concentration giving 150% activation of SIRT1
[6] = TAMRA assay, percent maximum fold activation
[7] = Trp peptide substrate, concentration giving 150% activation of SIRT1
[8] = Trp peptide substrate, percent maximum fold activation
[9] = TAMRA peptide substrate, concentration giving 150% activation of SIRT1
[10] = TAMRA peptide substrate, percent maximum fold activation
[11] = concentration of test compound giving 150% activation of SIRT1, Trp peptide substrate
[12] = percent maximum fold activation of SIRT1, Trp peptide substrate
[13] = concentration of test compound giving 150% activation of SIRT1, TAMRA peptide substrate
[14] = percent maximum fold activation of SIRT1, TAMRA peptide substrate

Structure (SMILES): Cc1cc(C)c(NC(=O)c2c(C)nn3ccc(-c4ccccc4Br)nc23)cn1 [Compound 826]
- Trp EC1.5 (μM) (SIRT1 [1]; [3]): A (EC1.5<1 μM)
- Emax (SIRT1 [1]; [4]): < 350%
- TAMRA EC1.5 (μM) (SIRT1 [2]; [5]): B (EC1.5 1-25 μM)
- Emax (SIRT1 [2]; [6]): ≥ 350%

Structure (SMILES): O=C(Nc1cnc2ccc(-c3ccccc3C(F)(F)F)nn12)c1cccc(O)n1 [Compound 467]
- Trp EC1.5 (SIRT1 [1]; [7]): B (EC1.5 1-25 μM)
- Emax (SIRT1 [1]; [8]): < 350%
- TAMRA EC1.5 (SIRT1 [2]; [9]): B (EC1.5 1-25 μM)
- Emax (SIRT1 [2]; [10]): ≥ 350%

Structure (SMILES): O=C(Nc1ccncc1)c1cnc2ccc(-c3ccc(F)c(F)c3F)nn12 [Compound 128]
- Trp EC1.5 (μM) (SIRT1 [1]; [11]): C (EC1.5>25 μM)
- Emax (SIRT1 [1]; [12]): < 350%
- TAMRA EC1.5 (μM) (SIRT1 [2]; [13]): C (EC1.5>25 μM)
- Emax (SIRT1 [2]; [14]): < 350%

Structure (SMILES): Cc1nc(C(=O)Nc2cnc3ccc(-c4ccccc4Cl)nn23)c(C)s1 [Compound 293]
- Trp EC1.5 (μM) (SIRT1 [1]; [3]): C (EC1.5>25 μM)
- Emax (SIRT1 [1]; [4]): < 350%
- TAMRA EC1.5 (μM) (SIRT1 [2]; [5]): A (EC1.5<1 μM)
- Emax (SIRT1 [2]; [6]): ≥ 350%

Structure (SMILES): O=C(Nc1cnn2ccc(-c3ccccc3C(F)(F)F)nc12)c1nc(C(F)(F)F)cs1 [Compound 809]
- Trp EC1.5 (μM) (SIRT1 [1]; [3]): C (EC1.5>25 μM)
- Emax (SIRT1 [1]; [4]): < 350%
- TAMRA EC1.5 (μM) (SIRT1 [2]; [5]): A (EC1.5<1 μM)
- Emax (SIRT1 [2]; [6]): ≥ 350%

Structure (SMILES): O=C(Nc1cccc(CN2CCOCC2)n1)c1cnn2ccc(-c3ccccc3OC(F)(F)F)nc12 [Compound 535]
- Trp EC1.5 (SIRT1 [1]; [7]): A (EC1.5<1 μM)
- Emax (SIRT1 [1]; [8]): ≥ 350%
- TAMRA EC1.5 (SIRT1 [2]; [9]): A (EC1.5<1 μM)
- Emax (SIRT1 [2]; [10]): ≥ 350%

Structure (SMILES): Cc1ccnc(C(=O)Nc2cnc3ccc(-c4ccccc4C(F)(F)F)nn23)c1 [Compound 233]
- Trp EC1.5 (μM) (SIRT1 [1]; [3]): C (EC1.5>25 μM)
- Emax (SIRT1 [1]; [4]): < 350%
- TAMRA EC1.5 (μM) (SIRT1 [2]; [5]): A (EC1.5<1 μM)
- Emax (SIRT1 [2]; [6]): ≥ 350%

Structure (SMILES): COc1cccc(C(=O)Nc2cnc3ccc(-c4ccccc4C(F)(F)F)nn23)n1 [Compound 437]
- Trp EC1.5 (SIRT1 [1]; [7]): A (EC1.5<1 μM)
- Emax (SIRT1 [1]; [8]): ≥ 350%
- TAMRA EC1.5 (SIRT1 [2]; [9]): A (EC1.5<1 μM)
- Emax (SIRT1 [2]; [10]): ≥ 350%

Structure (SMILES): Cc1nc2ccc(-c3ccccc3C(F)(F)F)nn2c1C(=O)Nc1cccc(N2CCOCC2)n1 [Compound 71]
- Trp EC1.5 (μM) (SIRT1 [1]; [11]): A (EC1.5<1 μM)
- Emax (SIRT1 [1]; [12]): ≥ 350%
- TAMRA EC1.5 (μM) (SIRT1 [2]; [13]): A (EC1.5<1 μM)
- Emax (SIRT1 [2]; [14]): ≥ 350%

Structure (SMILES): Cc1cc(-c2ccccc2C(F)(F)F)nn2c(C(=O)Nc3cccnn3)cnc12 [Compound 514]
- Trp EC1.5 (SIRT1 [1]; [7]): A (EC1.5<1 μM)
- Emax (SIRT1 [1]; [8]): ≥ 350%
- TAMRA EC1.5 (SIRT1 [2]; [9]): A (EC1.5<1 μM)
- Emax (SIRT1 [2]; [10]): ≥ 350%

Structure (SMILES): Cn1cc(-c2ccc3ncc(C(=O)Nc4cccc(N5CCOCC5)n4)n3n2)cn1 [Compound 56]
- Trp EC1.5 (μM) (SIRT1 [1]; [11]): B (EC1.5 1-25 μM)
- Emax (SIRT1 [1]; [12]): < 350%
- TAMRA EC1.5 (μM) (SIRT1 [2]; [13]): B (EC1.5 1-25 μM)
- Emax (SIRT1 [2]; [14]): < 350%

Structure (SMILES): O=C(Nc1ccnc(CN2CCOCC2)n1)c1cnc2ccc(-c3ccccc3C(F)(F)F)nn12 [Compound 23]
- Trp EC1.5 (μM) (SIRT1 [1]; [11]): B (EC1.5 1-25 μM)
- Emax (SIRT1 [1]; [12]): < 350%
- TAMRA EC1.5 (μM) (SIRT1 [2]; [13]): B (EC1.5 1-25 μM)
- Emax (SIRT1 [2]; [14]): ≥ 350%

Structure (SMILES): O=C(Nc1cnc2ccc(-c3ccccc3Cl)nn12)c1cccc(N2CCC2)n1 [Compound 308]
- Trp EC1.5 (μM) (SIRT1 [1]; [3]): A (EC1.5<1 μM)
- Emax (SIRT1 [1]; [4]): < 350%
- TAMRA EC1.5 (μM) (SIRT1 [2]; [5]): A (EC1.5<1 μM)
- Emax (SIRT1 [2]; [6]): ≥ 350%

Structure (SMILES): Cc1nc2ccc(-c3ccccc3C(F)(F)F)nn2c1C(=O)Nc1cccc(N2CCC2)n1 [Compound 69]
- Trp EC1.5 (μM) (SIRT1 [1]; [11]): B (EC1.5 1-25 μM)
- Emax (SIRT1 [1]; [12]): ≥ 350%
- TAMRA EC1.5 (μM) (SIRT1 [2]; [13]): A (EC1.5<1 μM)
- Emax (SIRT1 [2]; [14]): ≥ 350%

Structure (SMILES): Cc1nccc(NC(=O)c2c(C)nn3ccc(-c4ccccc4C(F)(F)F)nc23)c1C [Compound 639]
- Trp EC1.5 (μM) (SIRT1 [1]; [3]): A (EC1.5<1 μM)
- Emax (SIRT1 [1]; [4]): ≥ 350%
- TAMRA EC1.5 (μM) (SIRT1 [2]; [5]): A (EC1.5<1 μM)
- Emax (SIRT1 [2]; [6]): ≥ 350%

Structure (SMILES): O=C(Nc1cnc2ccc(-c3ccccc3C(F)(F)F)nn12)c1cscn1 [Compound 218]
- Trp EC1.5 (μM) (SIRT1 [1]; [3]): B (EC1.5 1-25 μM)
- Emax (SIRT1 [1]; [4]): < 350%
- TAMRA EC1.5 (μM) (SIRT1 [2]; [5]): A (EC1.5<1 μM)
- Emax (SIRT1 [2]; [6]): ≥ 350%

Structure (SMILES): O=C(Nc1ncc(F)cc1F)c1cnn2ccc(-c3ccccc3C(F)(F)F)nc12 [Compound 656]
- Trp EC1.5 (μM) (SIRT1 [1]; [3]): B (EC1.5 1-25 μM)
- Emax (SIRT1 [1]; [4]): < 350%
- TAMRA EC1.5 (μM) (SIRT1 [2]; [5]): B (EC1.5 1-25 μM)
- Emax (SIRT1 [2]; [6]): ≥ 350%

Structure (SMILES): O=C(Nc1cccc(N2CCC2)n1)c1cnc2ccc(-c3ccccc3C(F)F)nn12 [Compound 51]
- Trp EC1.5 (μM) (SIRT1 [1]; [11]): B (EC1.5 1-25 μM)
- Emax (SIRT1 [1]; [12]): ≥ 350%
- TAMRA EC1.5 (μM) (SIRT1 [2]; [13]): A (EC1.5<1 μM)
- Emax (SIRT1 [2]; [14]): ≥ 350%

Structure (SMILES): O=C(Nc1ccncn1)c1cnn2ccc(-c3ccccc3OC(F)(F)F)nc12 [Compound 533, N-(pyrimidin-4-yl)-5-(2-(trifluoromethoxy)phenyl)pyrazolo[1,5-a]pyrimidine-3-carboxamide]
- Trp EC1.5 (SIRT1 [1]; [7]): B (EC1.5 1-25 μM)
- Emax (SIRT1 [1]; [8]): < 350%
- TAMRA EC1.5 (SIRT1 [2]; [9]): A (EC1.5<1 μM)
- Emax (SIRT1 [2]; [10]): ≥ 350%

Structure (SMILES): Cc1nc2c(OC[C@H](O)CO)cc(-c3ccccc3C(F)(F)F)nn2c1C(=O)Nc1cccnn1 [Compound 773, (R)-8-(2,3-dihydroxypropoxy)-2-methyl-N-(pyridazin-3-yl)-6-(2-(trifluoromethyl)phenyl)imidazo[1,2-b]pyridazine-3-carboxamide]
- Trp EC1.5 (μM) (SIRT1 [1]; [3]): A (EC1.5<1 μM)
- Emax (SIRT1 [1]; [4]): ≥ 350%
- TAMRA EC1.5 (μM) (SIRT1 [2]; [5]): A (EC1.5<1 μM)
- Emax (SIRT1 [2]; [6]): ≥ 350%

Structure (SMILES): O=C(Nc1cccc(N2CCOCC2)n1)c1cnc2ccc(-c3cccc(OCC(O)CO)c3)nn12 (stereo not drawn) [Compound 372]
- Trp EC1.5 (μM) (SIRT1 [1]; [3]): A (EC1.5<1 μM)
- Emax (SIRT1 [1]; [4]): < 350%
- TAMRA EC1.5 (μM) (SIRT1 [2]; [5]): A (EC1.5<1 μM)
- Emax (SIRT1 [2]; [6]): ≥ 350%

Structure (SMILES): Cc1c(-c2ccccc2C(F)(F)F)nn2c(NC(=O)c3cccc(N4CCCC4)n3)cnc2c1C [Compound 421]
- Trp EC1.5 (SIRT1 [1]; [7]): A (EC1.5<1 μM)
- Emax (SIRT1 [1]; [8]): ≥ 350%
- TAMRA EC1.5 (SIRT1 [2]; [9]): A (EC1.5<1 μM)
- Emax (SIRT1 [2]; [10]): ≥ 350%

Structure (SMILES): CS(=O)(=O)c1ccccc1-c1ccc2ncc(C(=O)Nc3ccnc(N4CCC4)c3)n2n1 [Compound 186]
- Trp EC1.5 (μM) (SIRT1 [1]; [11]): C (EC1.5>25 μM)
- Emax (SIRT1 [1]; [12]): < 350%
- TAMRA EC1.5 (μM) (SIRT1 [2]; [13]): B (EC1.5 1-25 μM)
- Emax (SIRT1 [2]; [14]): < 350%

Structure (SMILES): Cc1cc2ncc(C(=O)Nc3cccnc3)n2nc1-c1ccccc1C(F)(F)F [Compound 210]
- Trp EC1.5 (μM) (SIRT1 [1]; [3]): B (EC1.5 1-25 μM)
- Emax (SIRT1 [1]; [4]): ≥ 350%
- TAMRA EC1.5 (μM) (SIRT1 [2]; [5]): B (EC1.5 1-25 μM)
- Emax (SIRT1 [2]; [6]): ≥ 350%
